Reference: US20210292851A1, “METHOD OF MONITORING EFFECTIVENESS OF IMMUNOTHERAPY OF CANCER PATIENTS” (Roche Sequencing Solutions, Inc., priority 2018, published 2021)

Experiments:
advanced NSCLC patients = experiment: Phase 3 randomized trial, Atezolizumab vs docetaxel in second line advanced NSCLC: progression-free survival by baseline ctDNA mutation metric; format: in vivo, human; conditions: for Events/Total number of patients: PFS events
Description: In a Phase 3, open-label, multicenter randomized controlled trial, NSCLC patients received either Atezolizumab or docetaxel in a second line setting of advanced NSCLC. Blood plasma samples were obtained from 102 patients prior to start of second line therapy. The AVENIO® ctDNA kit, Surveillance Panel (Roche Sequencing Solutions, Pleasanton, Calif.) was used to assess the number of mutations in patient samples. Cell-free DNA (cfDNA) from the patients was isolated and analyzed according to the manufacturer's instructions of the AVENIO® ctDNA Kit. The metrics assessed included the numbers of variants and maximum allele frequency (MaxAF, the highest allele frequency of a single mutation among all mutations detected within a single sample).
The “number of mutations” metric was assessed on the population level and patients were assessed for progression-free survival (PFS) and overall survival (OS). (FIGS. 1 and 2, Tables 2 and 3) Using median or 75th percentile cut-off, patients treated with Atezolizumab and with number of mutations greater or equal median or 75th percentile have longer progression survival compared to that of chemotherapy, with a HR of 0.67 or 0.49, respectively. Meanwhile, Atezolizumab didn't show more benefit vs chemotherapy in patients with number of mutations fewer than the median or 75th percentile. The HR is 1.12 and 1.05 for <median or <75 percentile, respectively.
The MaxAF detected in the blood samples was also used to assess its relationship with progression free survival and overall survival. Using median cut-off, patients with MaxAF greater than the median have longer progression free survival when treated with Atezolizumab compared to chemotherapy, with a HR of 0.56 (FIG. 3, Table 4). In patients with MaxAF lesser the median, no benefit was observed on treatment with Atezolizumab vs chemotherapy (HR of 1.45).

NSCLC patients [1] = experiment: Same Phase 3 trial with serial ctDNA monitoring: overall survival by maxMMPM at C3D1; format: in vivo, human
Procedure: In this example, the patients' samples from the same Phase 3 trial as described in Example 1 were collected processed an analyzed essentially as described in Example 1. However, the samples were collected serially during the administration of therapy.
Multiple metrics of circulating tumor DNA (ctDNA) were assessed for association with OS.
Plasma from 94 patients taken at baseline and at subsequent cycles of therapy every three weeks (C2D1, C3D1, and C4D1) were analyzed retrospectively for ctDNA with the AVENIO ctDNA Surveillance Kit (Roche Sequencing Solutions, Pleasanton, Calif.) Mutations detected in matched PBMC DNA were excluded in correlation analyses with clinical outcomes. ctDNA was measured by allele frequency (AF) or mutant molecules per milliliter (MMPM), and summarized across multiple mutations within a sample by median, mean or maximum. Concordance between these per-sample metrics and PFS/OS were assessed using C index, which is equivalent to AUC under a Receiver Operating Characteristic (ROC) curve.
Specifically, samples were collected and assessed at drug administration cycle 1, 2, or 3 or 4 taken in each case, on day 1 (C1D1, C2D1, C3D1, and C4D1). […] Using the max MMPM at C3D1, the patients were dichotomized at a median for the entire cohort of 8.75 maximal MMPM. […] In the docetaxel arm, the 1-year survival rate among MMPM low vs MMPM high patients was 0.7 vs 0.07. Because mutation metrics obtained from overall ctDNA levels were associated with OS in metastatic NSCLC, ctDNA is a promising non-invasive blood based biomarker in the metastatic setting of NSCLC.

NSCLC patients [2] = conditions: ≥2L NSCLC patients; previously demonstrated by the study; cited from earlier work
[3] = number of detected variants <75th percentile (<12)
[4] = number of detected variants <Median (<6.5)
[5] = number of detected variants ≥75th percentile (≥12)
[6] = number of detected variants ≥Median (≥6.5)
[7] = patients with MaxAF <Median (<44.58) at baseline
[8] = patients with MaxAF ≥Median (≥44.58) at baseline
[9] = patients with number of detected variants <75th percentile (<12) at baseline
[10] = patients with number of detected variants <Median (<6.5) at baseline
[11] = patients with number of detected variants ≥75th percentile (≥12) at baseline
[12] = patients with number of detected variants ≥Median (≥6.5) at baseline
[13] = MMPM high patients (max MMPM at C3D1, dichotomized at median 8.75)
[14] = MMPM low patients (max MMPM at C3D1, dichotomized at median 8.75)

Row | Molecule | Events/Total number of patients (advanced NSCLC patients; MaxAF <Median (<44.58)) | Events/Total number of patients (advanced NSCLC patients; MaxAF ≥Median (≥44.58)) | Events/Total number of patients (advanced NSCLC patients; [3]) | Events/Total number of patients (advanced NSCLC patients; [4]) | Events/Total number of patients (advanced NSCLC patients; [5]) | Events/Total number of patients (advanced NSCLC patients; [6]) | Median Progression Free Survival (advanced NSCLC patients; [7]) | Median Progression Free Survival (advanced NSCLC patients; [8]) | Median Progression Free Survival (advanced NSCLC patients; [9]) | Median Progression Free Survival (advanced NSCLC patients; [10]) | Median Progression Free Survival (advanced NSCLC patients; [11]) | Median Progression Free Survival (advanced NSCLC patients; [12]) | 1-year survival rate (OS) (NSCLC patients [1]; [13]) | 1-year survival rate (OS) (NSCLC patients [1]; [14]) | other results
1 | CC(=O)O[C@@]12CO[C@@H]1C[C@H](O)[C@@]1(C)C(=O)[C@H](O)C3=C(C)[C@@H](OC(=O)[C@H](O)[C@@H](NC(=O)OC(C)(C)C)c4ccccc4)C[C@@](O)([C@@H](OC(=O)c4ccccc4)[C@H]21)C3(C)C [Docetaxel, docetaxel] | 27/28 | 23/23 | 37/37 | 27/27 | 13/14 | 23/24 | 4.09 | 3.09 | 4.07 | 3.98 | 2.41 | 2.94 | 0.07 | 0.7 | 
2 | atezolizumab | 22/23 | 24/28 | 35/38 | 23/24 | 11/13 | 23/27 | 2.6 | 4.99 | 2.71 | 2.74 | 5.85 | 2.79 | 0.43 | 0.81 | OS benefit, atezolizumab vs docetaxel (NSCLC patients [2]): clinically significant OS benefit; Hazard Ratio (HR), progression free survival, Atezolizumab vs docetaxel (advanced NSCLC patients; MaxAF <Median (<44.58)): 1.45; Hazard Ratio (HR), progression free survival, Atezolizumab vs docetaxel (advanced NSCLC patients; MaxAF ≥Median (≥44.58)): 0.56; Hazard Ratio (HR), progression free survival, Atezolizumab vs docetaxel (advanced NSCLC patients; [3]): 1.05; Hazard Ratio (HR), progression free survival, Atezolizumab vs docetaxel (advanced NSCLC patients; [4]): 1.12; Hazard Ratio (HR), progression free survival, Atezolizumab vs docetaxel (advanced NSCLC patients; [5]): 0.49; Hazard Ratio (HR), progression free survival, Atezolizumab vs docetaxel (advanced NSCLC patients; [6]): 0.67
